Source: PubChem BioAssay AID256 (DTP/NCI, 2004)
“And” between values parts separate entries of the source, which are not always exact repeats. Equal values may be shown once. Inconclusive results and toxic doses are left out.

Test system: CD2F1 mice, L1210 leukemia ip, survival T/C
Assay: NCI In Vivo Anticancer Drug Screen. Data for tumor model L1210 Leukemia (intraperitoneal) in CD2F1 (CDF1) mice
Conditions: higher = longer survival
Summary of the method: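 Transplantable tumor in mice; compound-treated vs vehicle-treated groups. Read-out = treated/control ratio of the measured endpoint.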

[1] = endpoint: mean survival time, dose: 25.0 mg/kg/injection, schedule: Q01DX009 (ip), vehicle: saline with Tween-80
[2] = endpoint: mean survival time, dose: 50.0 mg/kg/injection, schedule: Q01DX009 (ip), vehicle: saline with Tween-80
[3] = endpoint: mean survival time, dose: 12.5 mg/kg/injection, schedule: Q01DX009 (ip), vehicle: saline with Tween-80
[4] = endpoint: mean survival time, dose: 100.0 mg/kg/injection, schedule: Q04DX003 (ip), vehicle: saline with Tween-80
[5] = endpoint: mean survival time, dose: 200.0 mg/kg/injection, schedule: Q04DX003 (ip), vehicle: saline with Tween-80
[6] = endpoint: mean survival time, dose: 400.0 mg/kg/injection, schedule: Q04DX003 (ip), vehicle: saline with Tween-80

Compound: N[C@@H](Cc1c[nH]c2ccccc12)C(=O)Nc1nncs1
- T/C (endpoint: median survival time, dose: 8.35 mg/kg/injection, schedule: Q03HX027 (ip), vehicle: saline): 96 % of control
- T/C (endpoint: median survival time, dose: 16.7 mg/kg/injection, schedule: Q03HX027 (ip), vehicle: saline): 100 % of control
- T/C (endpoint: median survival time, dose: 33.4 mg/kg/injection, schedule: Q03HX027 (ip), vehicle: saline): 103 % of control
- T/C (endpoint: median survival time, dose: 47.88 mg/kg/injection, schedule: Q03HX027 (ip), vehicle: saline): 107 % of control
- T/C (endpoint: median survival time, dose: 48.0 mg/kg/injection, schedule: Q03HX027 (ip), vehicle: saline): 108 % of control
- T/C (endpoint: median survival time, dose: 50.0 mg/kg/injection, schedule: Q01DX009 (ip), vehicle: saline): 98 % of control
- T/C (endpoint: median survival time, dose: 66.7 mg/kg/injection, schedule: Q03HX027 (ip), vehicle: saline): 103 % of control
- T/C (endpoint: median survival time, dose: 79.8 mg/kg/injection, schedule: Q03HX027 (ip), vehicle: saline): 113 % of control
- T/C (endpoint: median survival time, dose: 79.92 mg/kg/injection, schedule: Q03HX027 (ip), vehicle: saline): 113 % of control
- T/C (endpoint: median survival time, dose: 100.0 mg/kg/injection, schedule: Q01DX009 (ip), vehicle: saline): 97 % of control
- T/C (endpoint: median survival time, dose: 133.2 mg/kg/injection, schedule: Q03HX027 (ip), vehicle: saline): 116 % of control
- T/C (endpoint: median survival time, dose: 200.0 mg/kg/injection, schedule: Q01DX009 (ip), vehicle: saline): 105 % of control
- T/C (endpoint: median survival time, dose: 222.0 mg/kg/injection, schedule: Q03HX027 (ip), vehicle: saline): 116 % of control
- T/C (endpoint: median survival time, dose: 369.45 mg/kg/injection, schedule: Q03HX027 (ip), vehicle: saline): 87 % of control
- T/C (endpoint: median survival time, dose: 400.0 mg/kg/injection, schedule: Q01DX009 (ip), vehicle: saline): 120 % of control

Compound: O/N=C/C1CCCC[N-]1.O/N=C/C1CCCC[N-]1.O/N=C/C1CCCC[N-]1.[Cu] (stereo not given)
- T/C (endpoint: median survival time, dose: 0.75 mg/kg/injection, schedule: Q03HX024 (ip), vehicle: saline): 95 % of control
- T/C (endpoint: median survival time, dose: 1.5 mg/kg/injection, schedule: Q03HX024 (ip), vehicle: saline): 95 % of control
- T/C (endpoint: median survival time, dose: 6.0 mg/kg/injection, schedule: Q03HX024 (ip), vehicle: saline): 104 % of control
- T/C (endpoint: median survival time, dose: 8.0 mg/kg/injection, schedule: Q03HX024 (ip), vehicle: saline): 179 % of control

Compound: CC(C)c1ccccc1NC1=NCCO1
- T/C (endpoint: mean survival time, dose: 100.0 mg/kg/injection, schedule: Q04DX003 (ip), vehicle: Klucel (hydroxypropylcellulose) (HPC)): 103 % of control
- T/C (endpoint: mean survival time, dose: 200.0 mg/kg/injection, schedule: Q04DX003 (ip), vehicle: Klucel (hydroxypropylcellulose) (HPC)): 90 % of control

Compound: Cc1cc[n+](CCc2ccccc2)cc1
- T/C [1]: 112 % of control
- T/C (endpoint: mean survival time, dose: 25.0 mg/kg/injection, schedule: Q04DX003 (ip), vehicle: saline): 95 % of control
- T/C [2]: 98 % of control
- T/C (endpoint: mean survival time, dose: 50.0 mg/kg/injection, schedule: Q04DX003 (ip), vehicle: saline): 96 % of control
- T/C (endpoint: mean survival time, dose: 100.0 mg/kg/injection, schedule: Q04DX003 (ip), vehicle: saline): 94 % of control

Compound: C=Cc1c(C)c2cc3[nH]c(cc4nc(cc5nc(cc1[nH]2)C(C)=C5CCC(=O)O)C(CCC(=O)O)=C4C)c(C)c3C=C
- T/C [3]: 88 % of control
- T/C [1]: 88 % of control
- T/C [2]: 88 % of control

Compound: O=C(O)C1C2CCC(CC2)C1C(=O)O (stereo not given)
- T/C (endpoint: mean survival time, dose: 100.0 mg/kg/injection, schedule: Q04DX002 (ip), vehicle: saline with Tween-80): 93 % of control
- T/C (endpoint: mean survival time, dose: 200.0 mg/kg/injection, schedule: Q04DX002 (ip), vehicle: saline with Tween-80): 97 % of control
- T/C (endpoint: mean survival time, dose: 400.0 mg/kg/injection, schedule: Q04DX002 (ip), vehicle: saline with Tween-80): 101 % of control

Compound: O=C(Nc1nc2ccccc2s1)c1cc2ccccc2cc1O
- T/C [4]: 87 % of control
- T/C [5]: 98 % of control
- T/C [6]: 91 % of control

Compound: O=C(Nc1cc(Cl)cc(Cl)c1)C(F)(F)F
- T/C (endpoint: mean survival time, dose: 100.0 mg/kg/injection, schedule: Q01DX001 (ip), vehicle: saline): 107 % of control
- T/C (endpoint: mean survival time, dose: 200.0 mg/kg/injection, schedule: Q01DX001 (ip), vehicle: saline): 101 % of control
- T/C (endpoint: mean survival time, dose: 400.0 mg/kg/injection, schedule: Q01DX001 (ip), vehicle: saline): 101 % of control

Compound: COc1cc(C=O)ccc1OC1OC(C(COC(C)=O)OC(C)=O)C(OC(C)=O)C(OC(C)=O)C1OC(C)=O (stereo not given)
- T/C (endpoint: mean survival time, dose: 50.0 mg/kg/injection, schedule: Q01DX001 (ip), vehicle: saline with Tween-80): 93 % of control
- T/C (endpoint: mean survival time, dose: 100.0 mg/kg/injection, schedule: Q01DX001 (ip), vehicle: saline with Tween-80): 88 % of control
- T/C (endpoint: mean survival time, dose: 200.0 mg/kg/injection, schedule: Q01DX001 (ip), vehicle: saline with Tween-80): 88 % of control

Compound: C[CH2][Pb]([CH2]C)([CH2]C)[O]C(=O)c1cc(-c2ccccc2)nc2ccccc12
- T/C (endpoint: mean survival time, dose: 1.56 mg/kg/injection, schedule: Q01DX009 (ip), vehicle: saline with Tween-80): 98 % of control
- T/C (endpoint: mean survival time, dose: 3.13 mg/kg/injection, schedule: Q01DX009 (ip), vehicle: saline with Tween-80): 98 % of control
- T/C (endpoint: mean survival time, dose: 6.25 mg/kg/injection, schedule: Q01DX009 (ip), vehicle: saline with Tween-80): 91 % of control and 104 % of control

Compound: Cc1ccc(NC(=O)N(CCCl)N=O)cc1
- T/C (endpoint: mean survival time, dose: 9.0 mg/kg/injection, schedule: Q01DX015 (ip), vehicle: saline): 189 % of control
- T/C (endpoint: mean survival time, dose: 15.0 mg/kg/injection, schedule: Q01DX015 (ip), vehicle: saline): 193 % of control
- T/C (endpoint: mean survival time, dose: 25.0 mg/kg/injection, schedule: Q01DX015 (ip), vehicle: saline): 87 % of control

Compound: CC1=CC(=O)c2ccccc2C1=O
- T/C (endpoint: mean survival time, dose: 9.0 mg/kg/injection, schedule: Q01DX009 (ip), vehicle: other): 100 % of control
- T/C (endpoint: mean survival time, dose: 13.5 mg/kg/injection, schedule: Q01DX009 (ip), vehicle: other): 114 % of control
- T/C (endpoint: mean survival time, dose: 20.0 mg/kg/injection, schedule: Q01DX001 (ip), vehicle: other): 95 % of control
- T/C (endpoint: mean survival time, dose: 20.0 mg/kg/injection, schedule: Q01DX009 (ip), vehicle: other): 97 % of control
- T/C (endpoint: mean survival time, dose: 30.0 mg/kg/injection, schedule: Q01DX009 (ip), vehicle: other): 97 % of control
- T/C (endpoint: mean survival time, dose: 40.0 mg/kg/injection, schedule: Q01DX001 (ip), vehicle: other): 104 % of control
- T/C (endpoint: mean survival time, dose: 60.0 mg/kg/injection, schedule: Q01DX001 (ip), vehicle: other): 104 % of control
- T/C (endpoint: mean survival time, dose: 90.0 mg/kg/injection, schedule: Q01DX001 (ip), vehicle: other): 104 % of control

Compound: C[Si](C)(C)Oc1cc(N=NNC2=CC(=O)c3ccccc3C2=O)c(O)c2ccccc12
- T/C [3]: 95 % of control
- T/C [1]: 98 % of control
- T/C [2]: 95 % of control

Compound: CC(=O)NNC(=O)c1ccc(N(C)C)cc1
- T/C (endpoint: mean survival time, dose: 12.5 mg/kg/injection, schedule: Q01DX009 (ip), vehicle: other): 92 % of control
- T/C (endpoint: mean survival time, dose: 25.0 mg/kg/injection, schedule: Q01DX009 (ip), vehicle: other): 88 % of control
- T/C (endpoint: mean survival time, dose: 50.0 mg/kg/injection, schedule: Q01DX009 (ip), vehicle: other): 88 % of control
- T/C (endpoint: mean survival time, dose: 100.0 mg/kg/injection, schedule: Q01DX009 (ip), vehicle: other): 92 % of control
- T/C (endpoint: mean survival time, dose: 200.0 mg/kg/injection, schedule: Q01DX009 (ip), vehicle: other): 92 % of control

Compound: COc1ccc(N=NN(C)C(=O)c2ccccc2)cc1
- T/C (endpoint: mean survival time, dose: 50.0 mg/kg/injection, schedule: Q01DX009 (ip), vehicle: Klucel (hydroxypropylcellulose) (HPC)): 107 % of control
- T/C (endpoint: mean survival time, dose: 100.0 mg/kg/injection, schedule: Q01DX009 (ip), vehicle: Klucel (hydroxypropylcellulose) (HPC)): 117 % of control
- T/C (endpoint: mean survival time, dose: 400.0 mg/kg/injection, schedule: Q01DX009 (ip), vehicle: Klucel (hydroxypropylcellulose) (HPC)): 161 % of control

Compound: O=C(OCC(OC(=O)c1ccccc1)C1OC(c2ccccc2)OC1C(COC(=O)c1ccccc1)OC(=O)c1ccccc1)c1ccccc1 (stereo not given)
- T/C [4]: 97 % of control
- T/C [5]: 101 % of control
- T/C [6]: 97 % of control

Compound: c1ccc(Sc2ccc3ccccc3c2)cc1
- T/C [4]: 98 % of control
- T/C [5]: 101 % of control
- T/C [6]: 91 % of control

Compound: CC1C2CC3C(OC(=O)C13)C2I (stereo not given)
- T/C (endpoint: mean survival time, dose: 100.0 mg/kg/injection, schedule: Q01DX009 (ip), vehicle: saline with Tween-80): 95 % of control
- T/C [4]: 95 % of control
- T/C (endpoint: mean survival time, dose: 200.0 mg/kg/injection, schedule: Q01DX009 (ip), vehicle: saline with Tween-80): 86 % of control
- T/C [5]: 89 % of control
- T/C (endpoint: mean survival time, dose: 400.0 mg/kg/injection, schedule: Q01DX009 (ip), vehicle: saline with Tween-80): 92 % of control
- T/C [6]: 87 % of control

Compound: NC(=O)c1csc(C2OC(COP(=O)(O)O)C(O)C2O)n1 (stereo not given)
- T/C (endpoint: mean survival time, dose: 200.0 mg/kg/injection, schedule: Q01DX005 (ip), vehicle: water): 259 % of control
- T/C (endpoint: mean survival time, dose: 400.0 mg/kg/injection, schedule: Q01DX005 (ip), vehicle: water): 155 % of control and 183 % of control
- T/C (endpoint: mean survival time, dose: 600.0 mg/kg/injection, schedule: Q01DX005 (ip), vehicle: water): 160 % of control
- T/C (endpoint: mean survival time, dose: 800.0 mg/kg/injection, schedule: Q01DX005 (ip), vehicle: water): 196 % of control

Compound: CCc1ccc(S(=O)(=O)c2ccc(C)cc2)cc1
- T/C (endpoint: mean survival time, dose: 75.0 mg/kg/injection, schedule: Q04DX003 (ip), vehicle: saline): 100 % of control
- T/C (endpoint: mean survival time, dose: 150.0 mg/kg/injection, schedule: Q04DX003 (ip), vehicle: saline): 100 % of control
- T/C (endpoint: mean survival time, dose: 300.0 mg/kg/injection, schedule: Q04DX003 (ip), vehicle: saline): 100 % of control
